Test results: ChEMBL document CHEMBL5661943, “ASAP - In vitro antiviral effect” (2024)

Assays:
[1] = tested on: Zika virus; experiment: Functional CPE-based assay to measure dose dependent changes in antiviral-drug inhibitory efficacy against Zika virus MR766 in Vero E6 miRFP670 cells (cotreated with P-gp inhibitor, CP100356). Cells are treated with antiviral candidates that are serially diluted. EC50 is reported via analysis of MTS assay as a readout of CPE. The assay has been performed by KU Leuven.; type: organism-based, Chlorocebus sabaeus, Vero C1008; settings: Zika virus
[2] = tested on: dengue virus type 2; experiment: Functional assay to measure dose dependent changes in antiviral-drug inhibitory efficacy against Dengue virus type 2 New Guinea C in Vero E6 miRFP670 cells (cotreated with P-gp inhibitor, CP100356). Cells are treated with antiviral candidates that are serially diluted, following infection, cells are fixed. EC50 is reported via analysis of fluorescence intensity using high-content imager. The …; type: organism-based, Chlorocebus sabaeus, Vero C1008; settings: Dengue virus; for EC90: P-gp concentration 500 nM, P-gp inhibitor CP100356

Compound: O=C(Nc1ccc2c(c1)CNC2)c1cc(F)cc(-c2cn[nH]c2)c1
- EC50 ([1]; Vero C1008): > 50 µM
- EC90 ([1]; Vero C1008, Baseline response 0 %, Hill slope 1.1, Maximum measured 49.9 %, Maximum response 100 %, Minimum measured 5.357 %, P-gp concentration 500 nM, R squared 0.912, P-gp inhibitor CP100356): > 50 µM
- EC50 ([2]; Vero C1008): 1.11 µM
- EC90 ([2]; Vero C1008, Baseline response 0 %, EC90 CI (lower) 0.042 uM, EC90 CI (upper) 0.221 uM, Hill slope -0.898, Maximum measured 65.167 %, Maximum response 100 %, Minimum measured 5.409 %, R squared 0.901): 12.8 µM

Compound: N#Cc1cccc(-c2nc3c(C(=O)Nc4ccc5c(c4)CNC5)cc(F)cc3[nH]2)c1
- EC50 ([1]; Vero C1008): > 50 µM
- EC90 ([1]; Vero C1008, Baseline response 0 %, Hill slope 0.393, Maximum measured 36.291 %, Maximum response 100 %, Minimum measured 0.187 %, P-gp concentration 500 nM, R squared 0.325, P-gp inhibitor CP100356): > 50 µM
- EC50 ([2]; Vero C1008): > 6.25 µM
- EC90 ([2]; Vero C1008, Baseline response 0 %, Hill slope 1.695, Maximum measured 158.102 %, Maximum response 100 %, Minimum measured 53.067 %, R squared 0.44): > 6.25 µM

Compound: O=C(Nc1cc2c(c(-c3c[nH]c(=O)c(F)c3)c1)CNC2)c1cc(F)cc2[nH]ncc12
- EC50 ([1]; Vero C1008): > 50 µM
- EC90 ([1]; Vero C1008, Baseline response 0 %, Hill slope 0.515, Maximum measured 9.878 %, Maximum response 100 %, Minimum measured 0.944 %, P-gp concentration 500 nM, R squared 0.362, P-gp inhibitor CP100356): > 50 µM
- EC50 ([2]; Vero C1008): > 25 µM
- EC90 ([2]; Vero C1008, Maximum measured 138.883 %, Minimum measured 79.511 %): > 25 µM

Compound: COc1cccc(-c2nc3c(C(=O)Nc4ccc5c(c4)CNC5)cc(F)cc3[nH]2)c1
- EC50 ([1]; Vero C1008): > 50 µM
- EC90 ([1]; Vero C1008, Baseline response 0 %, Hill slope -1.02, Maximum measured 11.362 %, Maximum response 100 %, Minimum measured -3.329 %, P-gp concentration 500 nM, R squared 0.203, P-gp inhibitor CP100356): > 50 µM
- EC50 ([2]; Vero C1008): > 50 µM
- EC90 ([2]; Vero C1008, Maximum measured 205.039 %, Minimum measured 143.371 %): > 50 µM

Compound: CO[C@H]1C[C@H](n2ncc3c(C(=O)Nc4ccc5c(c4)CNC5)cc(Cl)cc32)C1
- EC50 ([1]; Vero C1008): 3.1 µM
- EC90 ([1]; Vero C1008): 3.53 µM
- EC50 ([2]; Vero C1008): > 12.5 µM
- EC90 ([2]; Vero C1008, Baseline response 0 %, Hill slope 0.569, Maximum measured 146.378 %, Maximum response 100 %, Minimum measured 74.589 %, R squared 0.043): > 12.5 µM

Compound: COc1ccccc1-c1nc2c(C(=O)Nc3ccc4c(c3)CNC4)cc(F)cc2[nH]1
- EC50 ([1]; Vero C1008): > 50 µM
- EC90 ([1]; Vero C1008, Baseline response 0 %, Hill slope 1.211, Maximum measured 45.367 %, Maximum response 100 %, Minimum measured -3.491 %, P-gp concentration 500 nM, R squared 0.953, P-gp inhibitor CP100356): > 50 µM
- EC50 ([2]; Vero C1008): > 12.5 µM
- EC90 ([2]; Vero C1008, Baseline response 0 %, Hill slope -1.284, Maximum measured 263.72 %, Maximum response 267.598 %, Minimum measured 165.032 %, R squared 0.972): > 12.5 µM

Compound: O=C(Nc1ccc2c(c1)CNC2)c1cc(F)cc2[nH]c(-c3cccc(F)c3)nc12
- EC50 ([1]; Vero C1008): > 50 µM
- EC90 ([1]; Vero C1008, Baseline response 0 %, Hill slope 2.278, Maximum measured 12.458 %, Maximum response 100 %, Minimum measured -7.568 %, P-gp concentration 500 nM, R squared 0.376, P-gp inhibitor CP100356): > 50 µM
- EC50 ([2]; Vero C1008): > 1.56 µM
- EC90 ([2]; Vero C1008, Baseline response 0 %, Hill slope -0.435, Maximum measured 206.615 %, Maximum response 236.845 %, Minimum measured 186.851 %, R squared 0.182): > 1.56 µM

Compound: N#Cc1cc2c(cc1NC(=O)c1cc(F)cc3[nH]ncc13)CNC2
- EC50 ([1]; Vero C1008): 2.09 µM
- EC90 ([1]; Vero C1008, Baseline response 0 %, EC90 CI (lower) 2.64 uM, EC90 CI (upper) 7.54 uM, Hill slope 2.894, Maximum measured 123.396 %, Maximum response 100 %, Minimum measured 1.493 %, P-gp concentration 500 nM, R squared 0.93, P-gp inhibitor CP100356): 4.46 µM
- EC50 ([2]; Vero C1008): > 25 µM
- EC90 ([2]; Vero C1008, Maximum measured 167.339 %, Minimum measured 79.168 %): > 25 µM

Compound: Cc1cccc(-c2nc3c(C(=O)Nc4ccc5c(c4)CNC5)cc(F)cc3[nH]2)c1
- EC50 ([1]; Vero C1008): > 50 µM
- EC90 ([1]; Vero C1008, Maximum measured 1.316 %, Minimum measured -3.721 %, P-gp concentration 500 nM, P-gp inhibitor CP100356): > 50 µM
- EC50 ([2]; Vero C1008): > 50 µM
- EC90 ([2]; Vero C1008, Maximum measured 188.282 %, Minimum measured 128.713 %): > 50 µM

Compound: C=Cc1cc2c(cc1NC(=O)c1cc(F)cc3[nH]ncc13)CNC2
- EC50 ([1]; Vero C1008): 5.17 µM
- EC90 ([1]; Vero C1008, Baseline response 0 %, EC90 CI (lower) 8.54 uM, EC90 CI (upper) 30.093 uM, Hill slope 1.942, Maximum measured 120.806 %, Maximum response 100 %, Minimum measured 10.445 %, P-gp concentration 500 nM, R squared 0.918, P-gp inhibitor CP100356): 16 µM
- EC50 ([2]; Vero C1008): > 6.25 µM
- EC90 ([2]; Vero C1008, Maximum measured 131.207 %, Minimum measured 113.262 %): > 6.25 µM

Compound: O=C(Nc1ccc2c(c1)CNC2)c1ccc2c(C3=CCNCC3)csc2c1
- EC50 ([1]; Vero C1008): 9.31 µM
- EC90 ([1]; Vero C1008, Baseline response 0 %, Hill slope 1.989, Maximum measured 64.405 %, Maximum response 100 %, Minimum measured 3.372 %, P-gp concentration 500 nM, R squared 0.951, P-gp inhibitor CP100356): > 12.5 µM
- EC50 ([2]; Vero C1008): 1.33 µM
- EC90 ([2]; Vero C1008, Baseline response 0 %, Hill slope -1.321, Maximum measured 86.909 %, Maximum response 100 %, Minimum measured 20.548 %, R squared 0.914): > 6.25 µM

Compound: Cc1ccc(-c2nc3c(C(=O)Nc4ccc5c(c4)CNC5)cc(F)cc3[nH]2)cc1
- EC50 ([1]; Vero C1008): > 50 µM
- EC90 ([1]; Vero C1008, Baseline response 0 %, Hill slope 1.828, Maximum measured 11.314 %, Maximum response 100 %, Minimum measured -7.525 %, P-gp concentration 500 nM, R squared 0.394, P-gp inhibitor CP100356): > 50 µM
- EC50 ([2]; Vero C1008): > 50 µM
- EC90 ([2]; Vero C1008, Baseline response 0 %, Hill slope -1.93, Maximum measured 263.734 %, Maximum response 225.04 %, Minimum measured 80.528 %, R squared 0.789): > 50 µM

Compound: O=C(Nc1ccc2c(c1)CNC2)c1cc(Cl)cc2c1cnn2C[C@H]1CCCO1
- EC50 ([1]; Vero C1008): 6.36 µM
- EC90 ([1]; Vero C1008, Baseline response 0 %, Hill slope 36.566, Maximum measured 122.907 %, Maximum response 100 %, Minimum measured 2.24 %, P-gp concentration 500 nM, R squared 0.938, P-gp inhibitor CP100356): 6.75 µM
- EC50 ([2]; Vero C1008): > 50 µM
- EC90 ([2]; Vero C1008, Baseline response 0 %, Hill slope 0.931, Maximum measured 200.765 %, Maximum response 100 %, Minimum measured 63.333 %, R squared 0.208): > 50 µM

Compound: O=C(Nc1ccc2c(c1)CNC2)c1cc(F)cc2[nH]c(-c3ccc(F)cc3)nc12
- EC50 ([1]; Vero C1008): > 50 µM
- EC90 ([1]; Vero C1008, Baseline response 0 %, Hill slope 2.324, Maximum measured 27.659 %, Maximum response 100 %, Minimum measured -7.999 %, P-gp concentration 500 nM, R squared 0.219, P-gp inhibitor CP100356): > 50 µM
- EC50 ([2]; Vero C1008): > 50 µM
- EC90 ([2]; Vero C1008, Maximum measured 176.058 %, Minimum measured 96.502 %): > 50 µM

Compound: COc1cc(-c2cc(NC(=O)c3cc(F)cc4[nH]ncc34)cc3c2CNC3)ccn1
- EC50 ([1]; Vero C1008): 3.92 µM
- EC90 ([1]; Vero C1008, Baseline response 0 %, EC90 CI (lower) 3.129 uM, EC90 CI (upper) 14.718 uM, Hill slope 4.011, Maximum measured 135.364 %, Maximum response 100 %, Minimum measured -0.295 %, P-gp concentration 500 nM, R squared 0.873, P-gp inhibitor CP100356): 6.79 µM
- EC50 ([2]; Vero C1008): > 50 µM
- EC90 ([2]; Vero C1008, Baseline response 0 %, Hill slope 0.386, Maximum measured 113.678 %, Maximum response 100 %, Minimum measured 63.234 %, R squared 0.283): > 50 µM

Compound: CC(C)n1cc2c(C(=O)Nc3ccc4c(c3)CNC4)cc(Cl)cc2n1
- EC50 ([1]; Vero C1008): 1.67 µM
- EC90 ([1]; Vero C1008): 1.93 µM
- EC50 ([2]; Vero C1008): > 12.5 µM
- EC90 ([2]; Vero C1008, Maximum measured 192.332 %, Minimum measured 77.026 %): > 12.5 µM

Compound: O=C(Nc1cc2c(c(C3=CCS(=O)(=O)CC3)c1)CNC2)c1cc(F)cc2[nH]ncc12
- EC50 ([1]; Vero C1008): > 50 µM
- EC90 ([1]; Vero C1008, Maximum measured 6.141 %, Minimum measured -2.074 %, P-gp concentration 500 nM, P-gp inhibitor CP100356): > 50 µM
- EC50 ([2]; Vero C1008): > 25 µM
- EC90 ([2]; Vero C1008, Maximum measured 118.058 %, Minimum measured 98.99 %): > 25 µM

Compound: O=C(Nc1ccc2c(c1)CNC2)c1cc(Cl)cc2c1cnn2C1CCC1
- EC50 ([1]; Vero C1008): 1.26 µM
- EC90 ([1]; Vero C1008, Baseline response 0 %, EC90 CI (lower) 1.13 uM, EC90 CI (upper) 4.462 uM, Hill slope 3.792, Maximum measured 124.257 %, Maximum response 100 %, Minimum measured 13.491 %, P-gp concentration 500 nM, R squared 0.856, P-gp inhibitor CP100356): 2.25 µM
- EC50 ([2]; Vero C1008): > 6.25 µM
- EC90 ([2]; Vero C1008, Maximum measured 167.025 %, Minimum measured 94.774 %): > 6.25 µM

Compound: O=C(Nc1cc2c(c(C3=CCOCC3)c1)CNC2)c1cc(F)cc2[nH]ncc12
- EC50 ([1]; Vero C1008): 7.33 µM
- EC90 ([1]; Vero C1008, Baseline response 0 %, EC90 CI (lower) 5.793 uM, EC90 CI (upper) 20.937 uM, Hill slope 5.397, Maximum measured 131.01 %, Maximum response 100 %, Minimum measured -1.308 %, P-gp concentration 500 nM, R squared 0.937, P-gp inhibitor CP100356): 11 µM
- EC50 ([2]; Vero C1008): > 25 µM
- EC90 ([2]; Vero C1008, Maximum measured 218.898 %, Minimum measured 80.524 %): > 25 µM

Compound: N[C@H]1Cc2ccc(NC(=O)c3cccc4c3CC(=O)N4)cc2C1
- EC50 ([1]; Vero C1008): > 50 µM
- EC90 ([1]; Vero C1008, Maximum measured 1.094 %, Minimum measured -1.183 %, P-gp concentration 500 nM, P-gp inhibitor CP100356): > 50 µM
- EC50 ([2]; Vero C1008): > 50 µM
- EC90 ([2]; Vero C1008, Maximum measured 137.168 %, Minimum measured 87.065 %): > 50 µM
